In US20210113501A1, “METHOD OF ADMINISTERING BETA-HYDROXY-BETA-METHYLBUTYRATE (HMB)” (Metabolic Technologies, Inc., priority 2009, published 2021):

Experiment: Study 1 blood chemistry
Format: in vivo, human
Conditions: for Gamma-glutamyl: in U/L (unit assumed); for A:G Ratio % Change / Alanine Aminotransferase % Change / Albumin % Change / Alkaline Phosphatase % Change / Aspartate Aminotransferase % Change / Blood Urea Nitrogen % Change / CO2 % Change / Chloride % Change / Cholesterol Ratio % Change / Creatinine % Change / Direct Bilirubin % Change / Gamma-glutamyl % Change / Globulin % Change / Glucose % Change / HDL % Change / Iron % Change / Iron Binding Capacity % Change / Iron Saturation % Change / LDL % Change / Lactate Dehydrogenase % Change / Phosphorus % Change / Potassium % Change / Protein % Change / Sodium % Change / Total Bilirubin % Change / Total Cholesterol % Change / Triglycerides % Change / UIBC % Change / Uric Acid % Change: Before to After
Procedure: Study 1 design. For study 1 the subjects reported to the laboratory in the morning following an overnight fast. Before ingestion of one of the supplemental treatments, a flexible sterile polyethylene catheter was inserted into a forearm vein using sterile procedures and a pre-ingestion blood sample was drawn. Subsequent blood samples were taken at 0, 2, 5, 10, 15, 25, 35, 45, 60, 90, 120 and 180 min after ingestion of the treatment. Plasma was separated and samples were stored frozen at −70° C. for analysis of HMB concentration. In addition, a portion of the pre-ingestion and 180 minute blood samples were used for measurements (LabCorp, Kansas City, Mo.) of glucose, uric acid, blood urea nitrogen (BUN), creatinine, sodium, potassium, chloride, carbon dioxide, phosphorous, protein, albumin, globulin, albumin:globulin ratio, total bilirubin, direct bilirubin, alkaline phosphatase, lactate dehydrogenase, aspartate aminotransferase (AST), alanine aminotransferase (ALT), gamma-glutamyl transpeptidase (GGT), iron binding capacity (TIBC), unsaturated iron binding capacity (UIBC), iron, iron saturation, total cholesterol, triglycerides, high density lipoprotein (HDL), low density lipoprotein (LDL), and cholesterol ratio. A complete blood count (CBC) was also performed before and after the 180 min treatment period. Subjects also completed a brief questionnaire to report any physical symptoms (such as nausea, headache, etc) they may have experienced during the experiment.
The data were analyzed using a crossover design with Proc GLM in SAS. (45) For the timed sampling of plasma HMB a repeated measures polynomial model was used. The model included subject, order, and treatment main effects and time by treatment interaction where appropriate. For other parameters Proc GLM was also used with subject, order, and treatment main effects and the p values are reported for the treatment main effect. Statistical significance was determined for p<0.05 and a trend was determined for 0.05<p<0.10.

[1] = After (180 min), listed as Free Acid Gel Sublingual
[2] = listed as Free Acid Gel Sublingual
[3] = Before, listed as Free Acid Gel Sublingual

CC(C)(O)CC(=O)[O-].CC(C)(O)CC(=O)[O-].[Ca+2] [CaHMB, calcium β-hydroxy-β-methylbutryate, reference compound]
A:G Ratio (After (180 min)): 1.7 ± 0.1
Alanine Aminotransferase (After (180 min)): 15.6 ± 2.0 IU/L
Albumin (After (180 min)): 4.1 ± 0.1 g/dL
Alkaline Phosphatase (After (180 min)): 68.4 ± 8.4 IU/L
Aspartate Aminotransferase (After (180 min)): 22.4 ± 1.8 IU/L
Blood Urea Nitrogen (After (180 min)): 11.3 ± 0.9 mg/dL
CO2 (After (180 min)): 24.8 ± 0.5 mEq/L
Chloride (After (180 min)): 103.1 ± 0.7 mEq/L
Cholesterol Ratio (After (180 min)): 3.0 ± 0.1
Creatinine (After (180 min)): 0.9 ± 0.1 mg/dL
Direct Bilirubin (After (180 min)): 0.1 ± 0.01 mg/dL
Globulin (After (180 min)): 2.5 ± 0.2 g/dL
Glucose (After (180 min)): 76.4 ± 3.2 mg/dL
HDL (After (180 min)): 53.1 ± 3.8 mg/dL
Iron (After (180 min)): 93.0 ± 16.8 µg/dL
Iron Binding Capacity (After (180 min)): 342.8 ± 35.9 µg/dL
Iron Saturation (After (180 min)): 31.1 ± 8.9%
LDL (After (180 min)): 86.5 ± 5.7 mg/dL
Lactate Dehydrogenase (After (180 min)): 165.6 ± 10.7 IU/L
Phosphorus (After (180 min)): 3.5 ± 0.3 mg/dL
Potassium (After (180 min)): 4.7 ± 0.2 mEq/L
Protein (After (180 min)): 6.5 ± 0.3 g/dL
Sodium (After (180 min)): 139.4 ± 0.8 mEq/L
Total Bilirubin (After (180 min)): 0.5 ± 0.08 mg/dL
Total Cholesterol (After (180 min)): 153.9 ± 9.7 mg/dL
Triglycerides (After (180 min)): 71.6 ± 11.2 mg/dL
UIBC (After (180 min)): 249.8 ± 47.7 µg/dL
Uric Acid (After (180 min)): 4.5 ± 0.4 mg/dL
Gamma-glutamyl (After (180 min)): 13.1 ± 0.9
A:G Ratio (Before): 1.8 ± 0.1
Alanine Aminotransferase (Before): 14.1 ± 1.5 IU/L
Albumin (Before): 4.0 ± 0.1 g/dL
Alkaline Phosphatase (Before): 66.5 ± 6.5 IU/L
Aspartate Aminotransferase (Before): 21.4 ± 1.5 IU/L
Blood Urea Nitrogen (Before): 12.1 ± 1.0 mg/dL
CO2 (Before): 23.4 ± 0.6 mEq/L
Chloride (Before): 103.3 ± 0.6 mEq/L
Cholesterol Ratio (Before): 3.0 ± 0.1
Creatinine (Before): 0.9 ± 0.1 mg/dL
Direct Bilirubin (Before): 0.1 ± 0.02 mg/dL
Globulin (Before): 2.3 ± 0.2 g/dL
Glucose (Before): 72.6 ± 1.6 mg/dL
HDL (Before): 51.3 ± 3.2 mg/dL
Iron (Before): 83.3 ± 16.7 µg/dL
Iron Binding Capacity (Before): 330.4 ± 32.9 µg/dL
Iron Saturation (Before): 29.9 ± 9.5%
LDL (Before): 86.1 ± 5.3 mg/dL
Lactate Dehydrogenase (Before): 160.9 ± 9.5 IU/L
Phosphorus (Before): 3.9 ± 0.2 mg/dL
Potassium (Before): 4.1 ± 0.1 mEq/L
Protein (Before): 6.3 ± 0.2 g/dL
Sodium (Before): 139.1 ± 0.5 mEq/L
Total Bilirubin (Before): 0.5 ± 0.07 mg/dL
Total Cholesterol (Before): 153.4 ± 9.1 mg/dL
Triglycerides (Before): 80.4 ± 11.6 mg/dL
UIBC (Before): 247.1 ± 45.0 µg/dL
Uric Acid (Before): 4.5 ± 0.3 mg/dL
A:G Ratio % Change: −8.9%
Alanine Aminotransferase % Change: 10.6%
Albumin % Change: 0.3%
Alkaline Phosphatase % Change: 2.8%
Aspartate Aminotransferase % Change: 4.7%
Blood Urea Nitrogen % Change: −7.2%
CO2 % Change: 5.9%
Chloride % Change: −0.1%
Cholesterol Ratio % Change: −2.5%
Creatinine % Change: 0.5%
Direct Bilirubin % Change: 5.8%
Gamma-glutamyl % Change: −4.5%
Globulin % Change: 8.2%
Glucose % Change: 5.2%
HDL % Change: 3.7%
Iron % Change: 11.7%
Iron Binding Capacity % Change: 3.7%
Iron Saturation % Change: 4.2%
LDL % Change: 0.4%
Lactate Dehydrogenase % Change: 3.0%
Phosphorus % Change: −10.8%
Potassium % Change: 13.4%
Protein % Change: 3.2%
Sodium % Change: 0.2%
Total Bilirubin % Change: 7.9%
Total Cholesterol % Change: 0.3%
Triglycerides % Change: −10.9%
UIBC % Change: 1.1%
Uric Acid % Change: −1.4%
Gamma-glutamyl (Before): 13.8 ± 0.9

CC(C)(O)CC(=O)O [HMB-Acid Gel Sublingual, 3-hydroxy-3-methylbutyric acid]
Albumin (After (180 min)): 4.1 ± 0.2 g/dL
Direct Bilirubin (After (180 min)): 0.1 ± 0.01 mg/dL
Iron Saturation (After (180 min)): 30.9 ± 8.5%
A:G Ratio [1]: 1.8 ± 0.1
Alanine Aminotransferase [1]: 17.3 ± 2.7 IU/L
Alkaline Phosphatase [1]: 66.8 ± 6.8 IU/L
Aspartate Aminotransferase [1]: 28.3 ± 8.2 IU/L
Blood Urea Nitrogen [1]: 12.9 ± 0.8 mg/dL
CO2 [1]: 24.3 ± 0.6 mEq/L
Chloride [1]: 102.4 ± 1.1 mEq/L
Cholesterol Ratio [1]: 3.3 ± 0.2
Creatinine [1]: 1.0 ± 0.04 mg/dL
Globulin [1]: 2.3 ± 0.1 g/dL
Glucose [1]: 77.4 ± 2.5 mg/dL
HDL [1]: 49.3 ± 4.3 mg/dL
Iron [1]: 94.6 ± 16.6 µg/dL
Iron Binding Capacity [1]: 339.5 ± 30.8 µg/dL
LDL [1]: 89.4 ± 4.9 mg/dL
Lactate Dehydrogenase [1]: 167.3 ± 12.2 IU/L
Phosphorus [1]: 3.5 ± 0.2 mg/dL
Potassium [1]: 4.5 ± 0.1 mEq/L
Protein [1]: 6.4 ± 0.2 g/dL
Sodium [1]: 137.8 ± 0.9 mEq/L
Total Bilirubin [1]: 0.5 ± 0.05 mg/dL
Total Cholesterol [1]: 155.5 ± 5.8 mg/dL
Triglycerides [1]: 83.8 ± 15.8 mg/dL
UIBC [1]: 244.9 ± 39.5 µg/dL
Uric Acid [1]: 4.0 ± 0.5 mg/dL
Gamma-glutamyl [1]: 13.4 ± 1.2
A:G Ratio (Before): 1.9 ± 0.1
Creatinine (Before): 1.0 ± 0.1 mg/dL
Direct Bilirubin (Before): 0.1 ± 0.01 mg/dL
Total Bilirubin (Before): 0.4 ± 0.05 mg/dL
A:G Ratio % Change [2]: −2.0%
Alanine Aminotransferase % Change [2]: −0.7%
Albumin % Change [2]: 1.5%
Alkaline Phosphatase % Change [2]: 1.1%
Aspartate Aminotransferase % Change [2]: 0.9%
Blood Urea Nitrogen % Change [2]: −10.4%
CO2 % Change [2]: 1.0%
Chloride % Change [2]: −0.5%
Cholesterol Ratio % Change [2]: −0.4%
Creatinine % Change [2]: −1.5%
Direct Bilirubin % Change [2]: 8.6%
Gamma-glutamyl % Change [2]: 0.9%
Globulin % Change [2]: 1.6%
Glucose % Change [2]: 4.4%
HDL % Change [2]: 1.3%
Iron % Change [2]: 13.7%
Iron Binding Capacity % Change [2]: 3.5%
Iron Saturation % Change [2]: 6.0%
LDL % Change [2]: 2.1%
Lactate Dehydrogenase % Change [2]: 1.5%
Phosphorus % Change [2]: −13.2%
Potassium % Change [2]: 10.6%
Protein % Change [2]: 1.6%
Sodium % Change [2]: −1.1%
Total Bilirubin % Change [2]: 22.6%
Total Cholesterol % Change [2]: 0.7%
Triglycerides % Change [2]: −8.7%
UIBC % Change [2]: 0.1%
Uric Acid % Change [2]: −2.2%
Alanine Aminotransferase [3]: 17.4 ± 2.7 IU/L
Albumin [3]: 4.1 ± 0.1 g/dL
Alkaline Phosphatase [3]: 66.0 ± 6.3 IU/L
Aspartate Aminotransferase [3]: 28.0 ± 7.9 IU/L
Blood Urea Nitrogen [3]: 14.4 ± 0.8 mg/dL
CO2 [3]: 24.0 ± 0.5 mEq/L
Chloride [3]: 102.9 ± 0.6 mEq/L
Cholesterol Ratio [3]: 3.3 ± 0.2
Globulin [3]: 2.3 ± 0.2 g/dL
Glucose [3]: 74.1 ± 1.7 mg/dL
HDL [3]: 48.6 ± 4.6 mg/dL
Iron [3]: 83.3 ± 16.4 µg/dL
Iron Binding Capacity [3]: 328.0 ± 32.8 µg/dL
Iron Saturation [3]: 29.1 ± 9.0%
LDL [3]: 87.5 ± 5.7 mg/dL
Lactate Dehydrogenase [3]: 164.8 ± 12.5 IU/L
Phosphorus [3]: 4.1 ± 0.05 mg/dL
Potassium [3]: 4.0 ± 0.03 mEq/L
Protein [3]: 6.3 ± 0.2 g/dL
Sodium [3]: 139.3 ± 0.8 mEq/L
Total Cholesterol [3]: 154.4 ± 6.9 mg/dL
Triglycerides [3]: 91.8 ± 16.1 mg/dL
UIBC [3]: 244.8 ± 42.3 µg/dL
Uric Acid [3]: 4.0 ± 0.4 mg/dL
Gamma-glutamyl [3]: 13.3 ± 1.2
